For data set [1], the system named is CaCo-2 (colorectal adenocarcinoma) cells. Description: SRB cell growth inhibition assay, CaCo-2. Type of data set: cell-based, human. To be noted: mean ± standard deviation.
Data set [2] has as its system MCF-7 (breast adenocarcinoma) cells. Description: SRB cell growth inhibition assay, MCF-7. Type of data set: cell-based, human. The note with it: mean ± standard deviation.
The subject of data set [3] is AGS (gastric adenocarcinoma) cells. Description: SRB cell growth inhibition assay, AGS. It counts as cell-based. The note with it: Homo sapiens, 72 h, mean ± standard deviation.
Data set [4] has as its system HeLa (cervical carcinoma) cells. The experiment in a line: SRB cell growth inhibition assay, HeLa. Type of data set: cell-based. To be noted: Homo sapiens, 72 h, mean ± standard deviation.
The test system of data set [5] is NCI-H460 (non-small cell lung cancer) cells. The experiment in a line: SRB cell growth inhibition assay, NCI-H460. Type of data set: cell-based. To be noted: Homo sapiens, 72 h, mean ± standard deviation.
Data set [6] relates to T. brucei Lister 427 bloodstream forms. Description: Resazurin-based anti-T. brucei assay. Type of data set: cell-based, Trypanosoma brucei. To be noted: 72 h, dose-response; for IC50: Trypanosoma brucei. Background: The colour change of resazurin is a common sign of viable cells or microbes.
Data set [7] has as its system THP-1-derived macrophages. The experiment in a line: MTT cytotoxicity in THP-1-derived macrophages. It counts as cell-based, human. The gist of the method:
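THP-1 cells differentiated into macrophages with 40 ng/mL PMA for 24 h plus 24 h in fresh medium, then exposed to compounds at 100 to 12.5 μM for 72 h at 37 °C, 5% CO2. Viability by MTT (0.5 mg/mL, 4 h), absorbance 570 nm; CC50 by non-linear regression, at least three independent experiments.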

As a reminder, the GI50 is the concentration that inhibits growth by half. A lower GI50 goes with greater sensitivity of the cells. For orientation: IC50 means the concentration at which inhibition is half-maximal. In the case of `COC(=O)c1sc2nccnc2c1C#Cc1ccccn1` [Compound 2f, Methyl 7-(pyridin-2-ylethynyl)thieno[2,3-b]pyrazine-6-carboxylate], the GI50 in data set [1] (72 h) was 3.72 ± 2.42 µM; in data set [1] (Homo sapiens, Caco-2, 72 h) it was under 5 µM; in data set [2] (72 h), 4.08 ± 0.27 µM; in data set [2] (Homo sapiens, MCF7, 72 h) it was under 5 µM; in data set [3], 9.25 ± 0.61 µM; in data set [4], 5.44 ± 4.31 µM. The GI50 in data set [5] was found to be 9.33 ± 4.21 µM. In addition, in data set [6], the “T. brucei IC50” value is recorded as “low μM range”. In addition, the IC50 in data set [6] turned out to be 6.43 µM. In data set [7], the “cytotoxicity in THP-1-derived macrophages (in words)” value is “some level of toxicity”.
For `O=c1oc(-c2ccccn2)cc2c1sc1nccnc12` [Compound 3f, 8-(Pyridin-2-yl)-6H-pyrano[4′,3′:4,5]thieno[2,3-b]pyrazin-6-one], the 50% growth inhibitory concentration (GI50) in data set [1] (Homo sapiens, Caco-2, 72 h) worked out at 58.8 ± 2.44 µM; in data set [2] (Homo sapiens, MCF7, 72 h) it was 59.3 ± 2.45 µM; in data set [3] it was 42.6 ± 3.96 µM; in data set [4], 58.8 ± 2.44 µM; in data set [5], 61.2 ± 4.17 µM. Also, in data set [6], the IC50 was under 11 µM. For the same compound, in data set [7], the “cytotoxicity in THP-1-derived macrophages (in words)” value is reported as “some degree of cytotoxicity”.
